{
  "source": "ChEMBL document CHEMBL1201862",
  "about": "“PubChem BioAssay data set” (2004)",
  "key": {"[1]": {"assay": "NIH-3T3 fibroblast cytotoxicity, dose response, cytotoxicity control, cell-based, fluorescence, Alamar Blue, secondary assay (AID 2327);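 further: NIH-3T3 mouse fibroblasts cultured with fluconazole at 8 µg/mL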", "assay_type": "functional"}, "[2]": {"assay": "fluconazole-exposed Candida albicans growth modulators – fluorescence, retest, confirmation (AID 2467)", "assay_type": "functional, cell-based"}, "[3]": {"assay": "cells", "assay_type": "functional"}, "[4]": {"target": "T1, Rac GTPase-activating protein 1 (Homo sapiens, UniProt Q9H0H5)", "T1 sequence (Q9H0H5 whole entry)": "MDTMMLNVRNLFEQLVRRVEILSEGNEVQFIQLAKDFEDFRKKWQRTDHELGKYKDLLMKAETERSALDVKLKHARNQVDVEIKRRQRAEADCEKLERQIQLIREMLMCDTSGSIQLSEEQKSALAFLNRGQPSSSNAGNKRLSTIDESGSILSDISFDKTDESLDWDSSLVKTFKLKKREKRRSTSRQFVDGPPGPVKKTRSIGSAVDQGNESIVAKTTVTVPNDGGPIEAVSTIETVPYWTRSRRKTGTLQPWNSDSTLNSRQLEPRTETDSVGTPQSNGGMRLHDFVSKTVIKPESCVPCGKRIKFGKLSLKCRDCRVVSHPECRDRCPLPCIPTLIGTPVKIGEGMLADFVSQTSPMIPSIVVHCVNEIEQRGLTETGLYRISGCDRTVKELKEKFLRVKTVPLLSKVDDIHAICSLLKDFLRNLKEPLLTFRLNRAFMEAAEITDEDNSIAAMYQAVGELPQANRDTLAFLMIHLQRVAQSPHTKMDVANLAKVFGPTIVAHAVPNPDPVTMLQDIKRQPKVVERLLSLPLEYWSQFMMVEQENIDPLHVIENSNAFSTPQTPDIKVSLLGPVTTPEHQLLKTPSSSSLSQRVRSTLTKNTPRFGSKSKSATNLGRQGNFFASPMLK", "assay": "blockers of MgcRacGAP-driven Rac1 GTP hydrolysis – biochemical, ADP Hunter fluorescence, primary and confirmatory, confirmation (AID 624330)", "assay_type": "functional"}, "[5]": {"assay": "blockers of HIV-1 envelope-mediated cell-cell fusion – cherry-pick, dose response (AID 652057)", "assay_type": "functional, cell-based"}, "[6]": {"assay": "viability of PTEN-deleted HCT116 cells – cell-based, HCT116 PTEN knockout, dose response (AID 1047);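 further: cells exposed to compound for 60 hours before readout; potency for loss of cell viability measured by luminescence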", "assay_type": "functional"}, "[7]": {"assay": "viability of HCT116 lacking mutant beta-catenin – cell-based, human colon tumor, dose response (AID 1045);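 further: cells exposed to compound for 60 hours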", "assay_type": "functional"}, "[8]": {"assay": "reduction of Shn3 3'UTR-driven luciferase in osteoblasts – cell-based, Clone20 osteoblasts, firefly luciferase, cherry-picked, dose response (AID 624132)", "assay_type": "functional"}, "[9]": {"assay": "loss of viability in HepG2 cells – cell-based, CellTiter-Glo, cherry-picked, cytotoxicity control for Shn3 inhibitor project, dose response (AID 624134)", "assay_type": "functional"}, "[10]": {"assay": "non-specific 3'UTR reporter inhibition in Clone20-Shn3RL – cell-based, Renilla luciferase, cherry-picked, counter-screen for Shn3 inhibitor project, dose response (AID 624133)", "assay_type": "functional"}, "[11]": {"system": "INS1", "assay": "INS-1E survival protection against cytokine death – cell-based, luminescence, retest, dose response (AID 449756);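 further: cell death triggered by IL-1 beta plus TNF-alpha plus IFN-gamma mixture; protective hits raise ATP signal compared with cytokine alone wells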", "assay_type": "functional", "conditions": "Rattus norvegicus"}, "[12]": {"target": "T2, Polyadenylate-binding protein 1 (Homo sapiens, UniProt P11940)", "T2 sequence (P11940 whole entry)": "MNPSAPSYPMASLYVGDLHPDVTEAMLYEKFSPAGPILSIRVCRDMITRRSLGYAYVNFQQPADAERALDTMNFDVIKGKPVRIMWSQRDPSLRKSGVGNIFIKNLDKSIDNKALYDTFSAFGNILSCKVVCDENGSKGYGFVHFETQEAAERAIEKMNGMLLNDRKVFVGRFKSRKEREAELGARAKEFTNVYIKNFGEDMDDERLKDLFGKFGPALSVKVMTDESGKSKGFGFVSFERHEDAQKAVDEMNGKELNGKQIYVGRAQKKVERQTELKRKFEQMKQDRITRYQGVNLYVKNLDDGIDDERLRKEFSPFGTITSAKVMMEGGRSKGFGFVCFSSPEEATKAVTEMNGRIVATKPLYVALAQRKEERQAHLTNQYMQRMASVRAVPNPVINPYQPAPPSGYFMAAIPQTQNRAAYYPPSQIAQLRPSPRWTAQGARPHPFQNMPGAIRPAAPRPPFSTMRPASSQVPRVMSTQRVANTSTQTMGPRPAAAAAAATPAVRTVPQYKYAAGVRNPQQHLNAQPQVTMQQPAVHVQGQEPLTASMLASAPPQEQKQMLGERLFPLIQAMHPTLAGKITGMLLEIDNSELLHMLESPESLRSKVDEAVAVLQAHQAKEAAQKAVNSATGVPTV", "assay": "MLLE binding blockers, Cy5 peptide tracer – biochemical, fluorescence polarization, Cy5-PAM2 peptide, secondary, miRNA deadenylation inhibitor project, dose response (AID 602260)", "assay_type": "functional", "conditions": "read-out: IC50_Mean"}, "[13]": {"target": "T2, Polyadenylate-binding protein 1", "assay": "MLLE domain peptide-binding blockers, IC50 – biochemical, fluorescence polarization, FITC-PAM2 peptide, dose response (AID 602259)", "assay_type": "functional", "conditions": "read-out: IC50_Mean"}, "[14]": {"target": "Cytochrome P450 3A4 (Homo sapiens, UniProt P08684)", "sequence (P08684 whole entry)": "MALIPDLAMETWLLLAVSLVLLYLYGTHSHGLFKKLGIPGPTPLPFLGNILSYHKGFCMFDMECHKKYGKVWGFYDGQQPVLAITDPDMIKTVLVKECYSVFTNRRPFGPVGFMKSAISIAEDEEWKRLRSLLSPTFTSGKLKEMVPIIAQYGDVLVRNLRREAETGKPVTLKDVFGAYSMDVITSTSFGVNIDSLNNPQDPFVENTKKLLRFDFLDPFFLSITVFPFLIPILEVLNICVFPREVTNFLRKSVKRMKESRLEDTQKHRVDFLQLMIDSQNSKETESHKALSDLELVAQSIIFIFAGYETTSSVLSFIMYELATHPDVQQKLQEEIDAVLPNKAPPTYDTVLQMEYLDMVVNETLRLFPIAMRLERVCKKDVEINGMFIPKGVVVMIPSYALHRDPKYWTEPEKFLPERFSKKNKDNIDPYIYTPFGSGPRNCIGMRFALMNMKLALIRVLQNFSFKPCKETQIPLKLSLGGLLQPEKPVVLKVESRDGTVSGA"}, "[15]": {"target": "Paired box protein Pax-8 (Homo sapiens, UniProt Q06710)", "sequence (Q06710 whole entry)": "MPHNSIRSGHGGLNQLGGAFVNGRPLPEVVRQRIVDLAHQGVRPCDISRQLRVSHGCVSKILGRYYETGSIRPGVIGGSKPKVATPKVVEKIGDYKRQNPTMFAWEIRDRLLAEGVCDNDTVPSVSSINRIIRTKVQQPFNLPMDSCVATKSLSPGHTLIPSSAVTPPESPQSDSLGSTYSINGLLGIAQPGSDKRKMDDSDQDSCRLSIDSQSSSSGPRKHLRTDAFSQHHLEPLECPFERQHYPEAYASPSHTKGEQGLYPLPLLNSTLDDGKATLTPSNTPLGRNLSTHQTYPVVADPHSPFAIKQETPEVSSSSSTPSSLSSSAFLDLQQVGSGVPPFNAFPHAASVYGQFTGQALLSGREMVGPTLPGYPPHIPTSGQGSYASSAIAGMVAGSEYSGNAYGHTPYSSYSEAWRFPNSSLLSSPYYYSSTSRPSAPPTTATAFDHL", "assay": "PAX8 transcriptional activity inhibition in RMG-I – RMG-I cells, luciferase, cherry-pick, dose response (AID 687027);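 further: luciferase reporter driven by Pax8 target thyroperoxidase promoter measured by SteadyGlo luminescence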", "assay_type": "functional, cell-based"}, "[16]": {"assay": "luciferase reporter signal suppression in cells – H4 neuroglioma cells, luminescence, dose response (AID 1990)", "assay_type": "functional, cell-based"}, "[17]": {"system": "Streptococcus sp. 'group A'", "assay": "Streptococcus pyogenes SK(-)GAS viability under kanamycin – luminescence, BacTiterGlo, confirmation, counter-screen for streptokinase expression inhibitor project, dose response (AID 1900)", "assay_type": "functional, organism-based"}, "[18]": {"assay": "Luminescence Cell-Based Dose Response HTS to Identify Inhibitors of 5'UTR Stem-Loop Driven Prion Protein mRNA Translation in H4 Neuroglioblastoma Cells. [Related pubchem assays: 1827 (Project Summary), 1813 (Primary HTS)]", "assay_type": "functional"}, "[19]": {"assay": "alpha-synuclein stem-loop luciferase translation blockers – H4 neuroglioma cells, luminescence, confirmation (AID 1988)", "assay_type": "functional, cell-based"}, "[20]": {"target": "T3, Streptokinase A (Streptococcus pyogenes serotype M1, UniProt P10520)", "T3 sequence (P10520 whole entry)": "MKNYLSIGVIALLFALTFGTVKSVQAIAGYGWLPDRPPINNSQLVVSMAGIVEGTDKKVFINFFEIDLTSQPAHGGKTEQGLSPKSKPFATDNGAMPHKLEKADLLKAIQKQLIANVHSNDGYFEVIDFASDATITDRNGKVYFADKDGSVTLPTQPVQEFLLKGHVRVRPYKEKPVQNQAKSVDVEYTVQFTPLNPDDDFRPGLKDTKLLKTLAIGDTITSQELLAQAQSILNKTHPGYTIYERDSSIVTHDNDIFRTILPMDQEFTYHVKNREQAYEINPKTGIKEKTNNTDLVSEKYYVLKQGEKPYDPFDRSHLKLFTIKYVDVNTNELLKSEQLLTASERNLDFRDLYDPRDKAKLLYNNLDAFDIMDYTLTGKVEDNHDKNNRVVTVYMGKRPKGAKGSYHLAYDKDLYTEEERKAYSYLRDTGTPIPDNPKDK", "assay": "viability-normalized secreted streptokinase activity reduction – plasminogen activation absorbance, OD405, dose response (AID 1914)", "assay_type": "functional, Streptococcus pyogenes M1 GAS"}, "[21]": {"system": "Streptococcus", "assay": "GAS UMAA2166 growth inhibition – luminescence, BacTiterGlo, counter-screen for streptokinase expression inhibitor project, dose response (AID 1915);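 further: potency for reduction of bacterial viability or growth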", "assay_type": "functional, organism-based"}},
  "note": "Activity calls are given as the source filed them.",
  "data": [
    {"compound": "O=C(O)CCCCCN1C(=O)/C(=C\\c2ccncc2)SC1=S", "values": [
      {"measurement": "EC50", "setting": "[1]", "value": "6.7 µM (inconclusive)"},
      {"measurement": "EC50", "setting": "[2]", "value": "1.45 µM (active)"},
      {"measurement": "IC50", "setting": "[3]", "value": "23.6 µM (active)"}
    ]},
    {"compound": "Oc1ccccc1/C=N/n1c(S)nnc1-c1ccccc1", "values": [
      {"measurement": "IC50", "setting": "[4]", "value": "82.2 µM (active)"}
    ]},
    {"compound": "COc1cccc2cc(C(=O)Oc3ccc(NC(C)=O)cc3)c(=O)oc12", "values": [
      {"measurement": "IC50", "setting": "[4]", "value": "34.9 µM (active)"}
    ]},
    {"compound": "CCOC(=O)CCNC(C)C1COc2ccccc2O1", "note": "(configuration not stated)", "values": [
      {"measurement": "IC50", "setting": "[4]", "value": "178 µM (active)"}
    ]},
    {"compound": "O=C(Nc1ccc(Cl)cc1)C1CCCN(C2=NS(=O)(=O)c3ccccc32)C1", "note": "(configuration not stated)", "values": [
      {"measurement": "AC50", "setting": "[5]", "value": "25.9 µM (active)"}
    ]},
    {"compound": "Cc1nn(-c2ccccc2)c(C)c1/C=N/NC(=O)CSc1nc2ccccc2c(=O)n1-c1ccc(Br)cc1", "values": [
      {"measurement": "EC50", "setting": "[6]", "value": "7.38 µM (active)"},
      {"measurement": "EC50", "setting": "[7]", "value": "7.27 µM (active)"}
    ]},
    {"compound": "Cc1nn(Cc2ccc(Cl)cc2)c(C)c1NC(=O)c1cc(C(C)C)on1", "values": [
      {"measurement": "AC50", "setting": "[8]", "value": "6.2 µM (active)"},
      {"measurement": "AC50", "setting": "[9]", "value": "67 µM (active)"},
      {"measurement": "AC50", "setting": "[10]", "value": "9.1 µM (active)"}
    ]},
    {"compound": "Cc1ccc(-c2ccc3c(c2)O[C@@H](CN(C)Cc2cccnc2)[C@H](C)CN([C@H](C)CO)S3(=O)=O)cc1", "values": [
      {"measurement": "AC50", "setting": "[5]", "value": "33.3 µM (active)"}
    ]},
    {"compound": "CCCNC(=O)c1ccc2c(O)c(O)c(-c3ccc(Cl)c([N+](=O)[O-])c3)nc2c1", "values": [
      {"measurement": "EC50", "setting": "[1]", "value": "> 150 µM (inactive)"},
      {"measurement": "EC50", "setting": "[2]", "value": "2.18 µM (active)"},
      {"measurement": "AC50", "setting": "[11]", "value": "5.06 µM (active)"}
    ]},
    {"compound": "O=C(O)c1cccc(NC(=S)NC(=O)c2ccncc2)c1", "values": [
      {"measurement": "IC50", "setting": "[12]", "value": "> 66 µM (inactive)"},
      {"measurement": "IC50", "setting": "[13]", "value": "> 66 µM (inactive)"}
    ]},
    {"compound": "Cc1oc(-c2ccc(Cl)cc2)nc1CN1CCCC(C(=O)N2CCN(C(=O)c3ccco3)CC2)C1", "note": "(configuration not stated)", "values": [
      {"measurement": "EC50", "setting": "[6]", "value": "26 µM (active)"},
      {"measurement": "EC50", "setting": "[7]", "value": "17.3 µM (active)"}
    ]},
    {"compound": "Cc1cccc(NC(=S)NC(=O)c2cccs2)n1", "values": [
      {"measurement": "IC50", "setting": "[12]", "value": "> 66 µM (inactive)"},
      {"measurement": "IC50", "setting": "[13]", "value": "> 66 µM (inactive)"},
      {"measurement": "AC50", "setting": "[14]", "value": "28.2 µM (inconclusive)"}
    ]},
    {"compound": "O=[N+]([O-])c1cccc(C(=S)N2CCN(c3ccc(F)cc3)CC2)c1", "values": [
      {"measurement": "IC50", "setting": "[12]", "value": "> 66 µM (inactive)"},
      {"measurement": "IC50", "setting": "[13]", "value": "> 66 µM (inactive)"}
    ]},
    {"compound": "COC(=O)C1=C(c2ccc(F)cc2OCc2ccccc2)C[C@@H]2CC[C@H]1N2C(=O)NCc1ccc(C(F)(F)F)cc1", "values": [
      {"measurement": "AC50", "setting": "[8]", "value": "9.14 µM (active)"},
      {"measurement": "AC50", "setting": "[9]", "value": "> 70 µM (inactive)"},
      {"measurement": "AC50", "setting": "[10]", "value": "7.19 µM (active)"},
      {"measurement": "AC50", "setting": "[15]", "value": "10.9 µM (active)"}
    ]},
    {"compound": "COc1ccc2cc3c(N)nn(C(=O)C4CCC(C(C)(C)C)CC4)c3nc2c1", "note": "(configuration not stated)", "values": [
      {"measurement": "EC50", "setting": "[16]", "value": "51.1 µM (active)"},
      {"measurement": "EC50", "setting": "[17]", "value": "2.15 µM (active)"},
      {"measurement": "EC50", "setting": "[18]", "value": "9.82 µM (active)"},
      {"measurement": "EC50", "setting": "[19]", "value": "12.3 µM (active)"},
      {"measurement": "EC50", "setting": "[20]", "value": "> 150 µM (not active)"},
      {"measurement": "EC50", "setting": "[21]", "value": "4.71 µM (active)"}
    ]},
    {"compound": "O=C(NC(=S)Nc1ccc(S(=O)(=O)N2CCCC2)cc1)c1cccs1", "values": [
      {"measurement": "IC50", "setting": "[12]", "value": "> 66 µM (inactive)"},
      {"measurement": "IC50", "setting": "[13]", "value": "> 66 µM (inactive)"}
    ]}
  ]
}
